Test system: acaricide-resistant adult female Aculops pelekassi
Assay: Efficacy test against Aculops pelekassi (mandarin orange leaf)
Format: in vivo
Details: 125 ppm emulsion sprayed
Method: Twenty acaricide-resistant adult female Aculops pelekassi acarus were inoculated onto a mandarin orange leaf placed in a Petri dish. Next, an emulsion was prepared having the formula indicated in the aforementioned Preparation example 2. This emulsion was diluted with water to a compound concentration of 125 ppm after which the diluted liquids were sprayed onto the mandarin orange leaf with a rotary spraying tower. The mandarin orange leaf was then placed in a temperature-controlled room at a temperature of 25° C. and a humidity of 65%. The life and death of the adult insects were investigated 3 days after the spraying. The development from eggs laid to adult was investigated 10 days after the spraying.

For `CCC(Oc1cc(Br)c(Cl)c(Br)c1)C(=O)NC(C)(C)c1ncccn1` (centres unmarked) [Compound No. 1-14], which “insect mortality rate after 3 days” value (3 days after spraying) is on record?
The value was at least 90%.

What about the “insect mortality rate after 10 days” value (10 days after spraying) of the same compound?
The value was at least 90%.

— patent US9334259B2, “Aryloxyacetamide compound and pesticide” (Nippon Soda Co., Ltd., priority 2012, dated 2016)
